{"source": "patent US20150352026A1", "about": "“COMPOSITION FOR INCREASING OF THE EFFECTIVENESS OF UV-B THERAPY, PROCESS FOR THE PREPARATION THEREOF, AND ITS USE” (GLOBALDERM KOZMETOLÓGIAI KORLÁTOLT FELELÖSSÉGÜ TÁRSASÁG, priority 2013, published 2015)", "assay": "Optical transmittance spectrum (Helios spectrophotometer, 200-600 nm)", "type": "physicochemical", "conditions": "sharp decrease around 300 nm, below this value", "description": "Furthermore, a sharp decrease of transmittance was detectable around 300 nm wavelength and it fell to zero below this value.\nCompositions suitable for therapeutic purposes were selected by the measurement of optical transmittance. Measurements were performed using a Helios a spectrophotometer in the wavelength range of 200-600 nm. FIGS. […] and 2 show optical transmittance spectra of Macrogol 400 and the spray formulation of the composition, respectively. FIG. 3 illustrates the optical transmittance spectrum of the gel formulation of the composition.", "data": [{"smiles": "O=C(O)c1cccnc1", "note": "[nicotinic acid]", "values": [{"measurement": "transmittance around and below 300 nm wavelength", "value": "more pronounced"}]}]}
